SMILES strings stand for the structures. Several values for one entry are separate records, joined by “and”; a condition that tells them apart may be missing. Equal values may be shown once. Inconclusive results and toxic doses are left out.

The test concerns CD2F1 mice, L1210 leukemia ip, survival T/C. The test is described as follows: NCI In Vivo Anticancer Drug Screen. Data for tumor model L1210 Leukemia (intraperitoneal) in CD2F1 (CDF1) mice. Particulars: higher = longer survival. In short, it runs like this:
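Read-out first: treated-group measurement over vehicle-control measurement, expressed as a ratio. Animals bore a transplanted tumor line and were dosed with compound or vehicle.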

[1] abbreviates: endpoint: mean survival time, dose: 100.0 mg/kg/injection, schedule: Q04DX002 (ip), vehicle: saline.
Setting [2] is: endpoint: mean survival time, dose: 100.0 mg/kg/injection, schedule: Q04DX003 (ip), vehicle: saline with Tween-80.
The mark [3] stands for this setting: endpoint: mean survival time, dose: 200.0 mg/kg/injection, schedule: Q04DX002 (ip), vehicle: saline.
[4] abbreviates: endpoint: mean survival time, dose: 200.0 mg/kg/injection, schedule: Q04DX003 (ip), vehicle: saline with Tween-80.
[5] abbreviates: endpoint: mean survival time, dose: 400.0 mg/kg/injection, schedule: Q04DX002 (ip), vehicle: saline.
[6] abbreviates: endpoint: mean survival time, dose: 400.0 mg/kg/injection, schedule: Q04DX003 (ip), vehicle: saline with Tween-80.
Where [7] appears, read: endpoint: mean survival time, dose: 25.0 mg/kg/injection, schedule: Q04DX003 (ip), vehicle: saline with Tween-80.
[8] abbreviates: endpoint: mean survival time, dose: 100.0 mg/kg/injection, schedule: Q01DX001 (ip), vehicle: Klucel (hydroxypropylcellulose) (HPC).
The mark [9] stands for this setting: endpoint: mean survival time, dose: 200.0 mg/kg/injection, schedule: Q01DX001 (ip), vehicle: Klucel (hydroxypropylcellulose) (HPC).
The mark [10] stands for this setting: endpoint: mean survival time, dose: 100.0 mg/kg/injection, schedule: Q01DX009 (ip), vehicle: saline with Tween-80.
[11] abbreviates: endpoint: mean survival time, dose: 200.0 mg/kg/injection, schedule: Q01DX009 (ip), vehicle: saline with Tween-80.
[12] abbreviates: endpoint: mean survival time, dose: 400.0 mg/kg/injection, schedule: Q01DX009 (ip), vehicle: saline with Tween-80.
The mark [13] stands for this setting: endpoint: mean survival time, dose: 50.0 mg/kg/injection, schedule: Q01DX009 (ip), vehicle: saline with Tween-80.
The mark [14] stands for this setting: endpoint: mean survival time, dose: 100.0 mg/kg/injection, schedule: Q01DX001 (ip), vehicle: saline with Tween-80.
Where [15] appears, read: endpoint: mean survival time, dose: 200.0 mg/kg/injection, schedule: Q01DX001 (ip), vehicle: saline with Tween-80.
Setting [16] is: endpoint: mean survival time, dose: 400.0 mg/kg/injection, schedule: Q01DX001 (ip), vehicle: saline with Tween-80.

As to `O=CNc1ccc(C(=O)O)c(O)c1`, the T/C by setting is: (endpoint: mean survival time, dose: 100.0 mg/kg/injection, schedule: Q01DX001 (ip), vehicle: saline) 95 % of control; (endpoint: mean survival time, dose: 100.0 mg/kg/injection, schedule: Q01DX009 (ip), vehicle: saline) 94 % of control and 95 % of control; under setting [1], 97 % of control; under setting [2], 100 % of control; (endpoint: mean survival time, dose: 200.0 mg/kg/injection, schedule: Q01DX001 (ip), vehicle: saline) 100 % of control and 106 % of control; (endpoint: mean survival time, dose: 200.0 mg/kg/injection, schedule: Q01DX009 (ip), vehicle: saline) 96 % of control and 98 % of control. The T/C reads like this: under setting [3], 86 % of control and 94 % of control; under setting [4], 98 % of control; (endpoint: mean survival time, dose: 400.0 mg/kg/injection, schedule: Q01DX001 (ip), vehicle: saline) 88 % of control and 92 % of control; (endpoint: mean survival time, dose: 400.0 mg/kg/injection, schedule: Q01DX009 (ip), vehicle: saline) 100 % of control; under setting [5], 92 % of control and 108 % of control; under setting [6], 98 % of control.
As for `COC(=O)c1cc2c3ccccc3ncc2c2ccccc12`, the T/C is 89 % of control under setting [7]; 89 % of control (endpoint: mean survival time, dose: 50.0 mg/kg/injection, schedule: Q04DX003 (ip), vehicle: saline with Tween-80); 87 % of control under setting [2]; 89 % of control under setting [4]; 89 % of control under setting [6].
Turning to `CCCC(C)(C)O`, the T/C is, setting by setting: under setting [2], 104 % of control; under setting [4], 107 % of control; under setting [6], 101 % of control.
`N#CC1(C2(C#N)CCCCC2)CCCCC1`: the T/C under setting [8] is 116 % of control; the T/C under setting [9] is 92 % of control; the T/C (endpoint: mean survival time, dose: 400.0 mg/kg/injection, schedule: Q01DX001 (ip), vehicle: Klucel (hydroxypropylcellulose) (HPC)) was 100 % of control.
For the compound `CC(=O)O[C@@H]1CO[C@H]2O[C@H]3[C@@H](C(C=O)=C[C@H](O)[C@@H]4C5=C(C(C)C)CC[C@]5(C)CC[C@@]34C)[C@@]2(O)C1=O`, the T/C is 104 % of control (endpoint: mean survival time, dose: 0.75 mg/kg/injection, schedule: Q01DX009 (ip), vehicle: Klucel (hydroxypropylcellulose) (HPC)); 104 % of control (endpoint: mean survival time, dose: 1.5 mg/kg/injection, schedule: Q01DX009 (ip), vehicle: Klucel (hydroxypropylcellulose) (HPC)); 104 % of control (endpoint: mean survival time, dose: 3.0 mg/kg/injection, schedule: Q01DX009 (ip), vehicle: Klucel (hydroxypropylcellulose) (HPC)); 107 % of control (endpoint: mean survival time, dose: 6.0 mg/kg/injection, schedule: Q01DX009 (ip), vehicle: Klucel (hydroxypropylcellulose) (HPC)).
As to `NC(=S)c1ccc(C(N)=S)cc1`, the T/C under setting [8] is 89 % of control; the T/C under setting [10] was 94 % of control; the T/C under setting [2] is 97 % of control; the T/C under setting [9] was 89 % of control; the T/C under setting [11] is 93 % of control; the T/C under setting [4] was 97 % of control. Besides, the T/C is 90 % of control under setting [12] and 98 % of control under setting [6].
Regarding `O=C1C=CC(=O)N1c1ccc(Cl)cc1Cl`, the T/C runs as follows: (endpoint: mean survival time, dose: 12.5 mg/kg/injection, schedule: Q04DX003 (ip), vehicle: saline with Tween-80) 103 % of control; under setting [7], 100 % of control.
For the compound `Nc1cc2c(c[n+](CCO)c3ccccc23)c2ccccc12`, the T/C is, setting by setting: (endpoint: mean survival time, dose: 12.5 mg/kg/injection, schedule: Q04DX003 (ip), vehicle: water) 103 % of control; (endpoint: mean survival time, dose: 25.0 mg/kg/injection, schedule: Q04DX003 (ip), vehicle: water) 104 % of control; (endpoint: mean survival time, dose: 50.0 mg/kg/injection, schedule: Q04DX003 (ip), vehicle: water) 110 % of control; (endpoint: mean survival time, dose: 100.0 mg/kg/injection, schedule: Q04DX003 (ip), vehicle: water) 120 % of control; (endpoint: mean survival time, dose: 200.0 mg/kg/injection, schedule: Q04DX003 (ip), vehicle: water) 120 % of control.
On to `NC(N)=NC(N)=Nc1ccc([As](=O)(O)O)c(O)c1`, for which the T/C (endpoint: mean survival time, dose: 100.0 mg/kg/injection, schedule: Q01DX009 (ip), vehicle: saline sonified) was 111 % of control.
With `Cc1cc(I)ccc1NC(=S)Nc1ccccc1F`, the T/C is 93 % of control under setting [13]; 100 % of control under setting [14]; 90 % of control under setting [10]; 96 % of control under setting [15]; 93 % of control under setting [11]; 96 % of control under setting [16].
Consider `Cc1ccc(NC(=O)N(CCCl)N=O)cc1`, for which the T/C is 189 % of control (endpoint: mean survival time, dose: 9.0 mg/kg/injection, schedule: Q01DX015 (ip), vehicle: saline); 193 % of control (endpoint: mean survival time, dose: 15.0 mg/kg/injection, schedule: Q01DX015 (ip), vehicle: saline); 87 % of control (endpoint: mean survival time, dose: 25.0 mg/kg/injection, schedule: Q01DX015 (ip), vehicle: saline).
Regarding `NCC(OCC(=O)O)C(Cl)(Cl)Cl` (stereo not drawn), the T/C under setting [2] is 101 % of control, the T/C under setting [4] was 96 % of control and the T/C under setting [6] is 101 % of control.
Turning to `CCOP(=O)(OCC)c1ccccc1`, the T/C runs as follows: under setting [1], 96 % of control; under setting [3], 96 % of control; under setting [5], 112 % of control.
As to `Cn1cnc([N+](=O)[O-])c1Sc1ncnc2c1ncn2C1CC(O)C(CO)O1` (stereo not drawn), the T/C was 104 % of control (endpoint: median survival time, dose: 3.75 mg/kg/injection, schedule: Q01DX005 (ip), vehicle: saline with Tween-80); 106 % of control (endpoint: median survival time, dose: 7.5 mg/kg/injection, schedule: Q01DX005 (ip), vehicle: saline with Tween-80); 103 % of control (endpoint: median survival time, dose: 15.0 mg/kg/injection, schedule: Q01DX005 (ip), vehicle: saline with Tween-80); 106 % of control (endpoint: median survival time, dose: 30.0 mg/kg/injection, schedule: Q01DX005 (ip), vehicle: saline with Tween-80); 118 % of control (endpoint: median survival time, dose: 60.0 mg/kg/injection, schedule: Q01DX005 (ip), vehicle: saline with Tween-80).
For `CN(C)/N=N\c1c(C(N)=O)ncn1C1OC(CO)C(O)C1O` (stereo not drawn), the T/C (endpoint: mean survival time, dose: 100.0 mg/kg/injection, schedule: Q01DX005 (ip), vehicle: saline) was 104 % of control and the T/C (endpoint: mean survival time, dose: 200.0 mg/kg/injection, schedule: Q01DX005 (ip), vehicle: saline) was 95 % of control.
As to `O=C1N(CCO)CCN1/N=C/c1ccc([N+](=O)[O-])o1`, the T/C reads like this: under setting [2], 93 % of control; under setting [4], 102 % of control; under setting [6], 95 % of control.
Take `Cc1cc(Cl)ccc1NC(=O)SCc1ccc(Cl)cc1`: the T/C reads like this: under setting [13], 95 % of control; under setting [10], 100 % of control; under setting [11], 103 % of control.
For the compound `COc1ccc(C(=O)OCC(=O)O)cc1`, the T/C (endpoint: mean survival time, dose: 50.0 mg/kg/injection, schedule: Q01DX001 (ip), vehicle: saline with Tween-80) is 102 % of control; the T/C under setting [14] is 98 % of control; the T/C under setting [15] was 102 % of control.
In the case of `COC(=O)C1CCCCC1C(=O)OC` (stereo not drawn), the T/C is, setting by setting: (endpoint: mean survival time, dose: 100.0 mg/kg/injection, schedule: Q04DX002 (ip), vehicle: saline with Tween-80) 97 % of control; under setting [2], 104 % of control; (endpoint: mean survival time, dose: 200.0 mg/kg/injection, schedule: Q04DX002 (ip), vehicle: saline with Tween-80) 97 % of control; under setting [4], 98 % of control; (endpoint: mean survival time, dose: 400.0 mg/kg/injection, schedule: Q04DX002 (ip), vehicle: saline with Tween-80) 101 % of control.
For the compound `c1ccc(N=N/C(=N/Nc2ccccc2)c2ccccc2)cc1`, the T/C by setting is: (endpoint: mean survival time, dose: 6.25 mg/kg/injection, schedule: Q01DX009 (ip), vehicle: saline with Tween-80) 104 % of control; (endpoint: mean survival time, dose: 12.5 mg/kg/injection, schedule: Q01DX009 (ip), vehicle: saline with Tween-80) 101 % of control; (endpoint: mean survival time, dose: 25.0 mg/kg/injection, schedule: Q01DX009 (ip), vehicle: saline with Tween-80) 98 % of control.
For the compound `CC(c1ccccc1)n1cncc1C(=O)NN(C)C` (stereo not drawn), the T/C is 96 % of control under setting [14], 93 % of control under setting [15] and 91 % of control under setting [16].
In the case of `O=C(CC(NC(=O)OCc1ccccc1)C(=O)OCc1ccccc1)OCc1ccccc1` (stereo not drawn), the T/C under setting [10] was 106 % of control; the T/C under setting [2] is 92 % of control; the T/C under setting [11] was 98 % of control; the T/C under setting [4] was 91 % of control; the T/C under setting [12] is 97 % of control; the T/C under setting [6] was 92 % of control.
For `COC1OC2COc3ccccc3OC2C2N=C(N)SC12` (stereo not drawn), the T/C was 100 % of control under setting [14] and 97 % of control under setting [15].

Values taken from PubChem BioAssay AID256 (DTP/NCI, 2004).
